Data as given in patent US11439646B2, “Anti-proliferative agents for treating PAH” (Pfizer Inc., priority 2016, dated 2022).

Experiments:
hPAAF = experiment: EdU cell proliferation assay, hPAAF; format: cell-based; settings: Homo sapiens, 5% FBS, N = 6, FIG. 1f, read-out: hPAAF IC50 (nM), inhibition of proliferation
Method: (§1) Alternatively, rather than using BrdU, EdU (5-ethynyl-2′-deoxyuridine) can be used. Cells were first pre-incubated with different concentrations of the CDK inhibitor for 30 minutes, and then 5% FBS was added to stimulate cell proliferation. Cells were maintained for 24 h before the proliferation rate was evaluated using EDU Click-iT EdU Alexa Fluor® 647 HCS Assay (Thermofisher Scientific, USA). EdU was added to the medium 16 h before the quantification of EdU incorporation. Proliferation was quantified by scanning the 96-well plates using automated high content imaging platform equipped with appropriate fluorescence microscopic filters for DAPI (4′,6-Diamidino-2-Phenylindole) or Hoechst stain and Cyanine5 dyes as part of the Click-iT assay. Proliferating EdU positive cells detected at Cyanine5 were quantified and normalized to total cell number per well where the total cell number per cell was identified by DAPI or Hoechst signal. The % effect was then calculated:
(§2) The average (avg) amount (amt) of proliferating cells per concentration of CDK inhibitor with FBS present.
(§3) The minimum amount of proliferation (min amt of prolif'n) is based on cell numbers in the wells where FBS is not added and no CDK inhibitor is present.
(§4) The maximum amount of proliferation (max amt of prolif'n) is based on cell numbers in the wells where FBS is added and no CDK inhibitor is present.

rPASMC = experiment: EdU cell proliferation assay, rPASMC; format: cell-based; settings: Rattus norvegicus, 5% FBS, N = 6, FIG. 1g, read-out: rPASMC IC50 (nM), inhibition of proliferation
Method: as §1, §2, §3, §4

phospho-Rb (Ser807/811) = experiment: In-cell western analysis of Rb phosphorylation in human PASMCs; format: cell-based; settings: Homo sapiens, PASMC; 10% FBS; N = 6; FIG. 2c; read-out: Average IC50 (nM), inhibition of phosphorylation of Rb in hPASMCs
Method: In-cell western analysis. Primary PASMCs from normal human subjects were cultured and serum-starved as described above. Cells were first pre-incubated with different concentrations of palbociclib for 60 minutes, and then either 5% FBS or 10% FBS or 30 ng/ml PDGF-BB was added to stimulate cell proliferation and Rb phosphorylation. The effect of Palbociclib on Rb phosphorylation was evaluated 24 h later, using in-cell western assay according to the manufacturer's instructions (Li-Cor Biosciences, Lincoln, Nebr., USA). Phosphorylated Rb was measured using a rabbit monoclonal antibody anti-phospho-Rb (Ser807/811) (Cell Signaling Technology, Inc., Danvers, Mass., USA), followed by detection with IRDye 800CW infrared fluorescent dye-labeled goat anti-rabbit secondary antibody. Actin levels were measured using mouse anti-actin monoclonal antibodies (pan Ab-5) (Fisher Scientific Pittsburgh, Pa., USA; Sigma Aldrich, St. Louis, Mo., USA), and followed by detection with IRDye 680RD-labeled goat anti-mouse secondary antibody. See FIG. 2a where 5% FBS was used, FIG. 2b where PDGF-BB was used, and FIG. 2c where 10% FBS was used.

hPASMC = experiment: EdU cell proliferation assay, hPASMC; format: cell-based; settings: Homo sapiens, 5% FBS, N = 6, FIG. 1e, read-out: hPASMC IC50 (nM), inhibition of proliferation
Method: as §1, §2, §3, §4

rat Su5416/Hx PAH model = experiment: Rat SuHx (Su5416/hypoxia)-induced PAH model (hemodynamics, histomorphometry, IHC); format: in vivo; settings: for lung weight vs vehicle/Su5416/Hx group / vessel-associated Ki67+ cells in the pulmonary vasculature (IHC) / vessel-associated pRb+ cells in the pulmonary vasculature (IHC): days 7 to 28; for MPAP: days 7 to 28, FIG. 4b; for Fulton Index: days 7 to 28, FIG. 4c; for muscularized intra-acinar vessel density relative to vehicle/Su5416/Hx group: days 7 to 28, FIG. 4e; for DPAP: days 7 to 28, FIG. 4i; for heart weight vs vehicle/Su5416/Hx group: days 7 to 28, FIG. 4j; for average vessel wall thickness, intra-acinar and pre-acinar vessels: days 7 to 28, FIG. 4d
Method: SuHx-induced Pulmonary Arterial Hypertension: Sprague-Dawley rats were obtained from Charles River Laboratories (200-300 g; vehicle control, n=5; all other groups, n=10). Rats received Semaxinib dissolved in DMSO on day 0, followed by housing in low (13%) oxygen until day 28. Sildenafil (30 mg/kg/dose; BID), Riociguat (10 mg/kg, QD) or Palbociclib (100 mg/kg; QD) was administered in vehicle (0.5% methylcellulose) from days 7-28. Terminal hemodynamic evaluations and necropsy were conducted on day 28 in a manner similar to the MCT study.
Hemodynamic measurements Su/Hx study: On day 28, animals were anesthetized via intramuscular injection of ketamine/xylazine (80/10 mg/kg). A Millar catheter was inserted into the pulmonary artery and pulmonary pressure and hemodynamics were measured as described by Stringer et al., (1981) Catheterization of the pulmonary artery in the closed-chest rat. J. Appl. Physiol. 51, 1047-1050. Hemodynamic values were calculated using the NOTOCORD-Hem software (NOTOCORD, Inc., Croissy sur Sienne, France) (CorDynamics).
(§5) Measurement of RV hypertrophy. After collection of the heart at necropsy, the atria and great vessels were removed. The RV was separated from the LV and S. The wet weights of the RV and LV+S were measured to calculate the Fulton Index.
(§6) Tissue preparation. Under anesthesia, the animals were exsanguinated, and the pulmonary circulation flushed with oxygenated (animals from Example 3 [MCT]) or heparizined (animals from Example 4 [Su5416/Hx]) saline. Trachea, lungs, and heart were removed intact from thoracic cavity and placed in ice-cold saline. Right lung lobes were removed, weighed, and immediately flash frozen in liquid nitrogen. A 10 mL syringe filled with fixative (10% NBF) with attached blunt tip needle (20 g) was used to inflate the left lung lobe and the airway was tied off to keep it consistently expanded. The left lung was then immersion fixed in 10% NBF for 48 hrs and then transferred to 70% EtOH for ≤5 days.
(§7) Histomorphometric analysis. Three, 3-5 μm thick, transverse sections of the left lung lobe were used for histomorphometric analysis. Overall disease severity scores were determined by light microscopic evaluation of hematoxylin and eosin (H&E)-stained lung sections by a board-certified veterinary pathologist. Scores ranged from 0 (absent), 1 (minimal), 2 (mild), 3 (moderate), 4 (marked) to 5 (severe) and were assigned according to the approximate percentage of the tissue affected by the tissue changes (inflammatory, degenerative, vascular and/or proliferative) characteristic of the PAH model. Average vessel wall thickness was evaluated using lung sections prepared with a modified Verhoeff-van Gieson elastin stain. Image analysis was performed using random field sampling (Visiopharm newCAST) of 10% of tissue area with observer-assisted identification of intra-acinar and pre-acinar vessels and application of a nucleator probe to measure vessel wall thickness. Fully muscularized intra-acinar vessel density was evaluated in a similar manner using dual αSMA/Ki67 IHC-stained sections and observer-assisted counting of ≥70% muscularized (i.e. SMA^+), transversely sectioned, ≤50 μm external diameter, intra-acinar vessels with an identifiable lumen. Vessel-associated Ki67^+ and pRb^+ cells were counted in αSMA/Ki67 IHC-and CD31/pRb IHC-stained lung sections, respectively, using random field sampling of 10% of tissue area and observer-assisted identification of Ki67^+ or pRb^+ cells associated with the walls (i.e. in the intima or media) of vessels 100 μm external diameter.
Immunohistochemistry. Dual α-SMA/Ki67 nuclear antigen: All IHC steps were performed on 3 μm-thick, formalin-fixed, paraffin-embedded (FFPE) sections on Leica Bond Rx automated immunohistochemistry stainer. The instrument was programmed to bake and dewax the slides. […]

[1] = tested on: Rat MCT-induced PAH Model; experiment: Rat MCT-induced PAH model (hemodynamics, histomorphometry, IHC); format: in vivo
Method: Rat MCT-induced PAH Model: Male Sprague-Dawley rats (Charles River Laboratories) (260-280 g; vehicle control group, n=6; all other groups, n=15) received MCT (50 mg/kg, SC; 1 ml/kg BVV) dissolved in vehicle (33.3% 1 N HCl, 14.8% 1 N NaOH, 52.2% diH2O) or vehicle alone on day 0. Sildenafil (50 mg/kg/dose; BID) was administered (5 ml/kg, PO) either prophylactically from days 0-28 or therapeutically from days 14-28. Palbociclib (100 mg/kg; QD) was administered therapeutically (days 14-28). Both sildenafil and palbociclib were resuspended in vehicle (0.5% methylcellulose) and administered orally (5 ml/kg). On day 28, animals were anesthetized via isoflurane, hemodynamic parameters were evaluated, and tissues harvested after euthanasia.
Hemodynamic measurements—monocrotaline (MCT) study: On day 28, animals were anesthetized via 2% isofluorane in positive pressure ventilator. Pulmonary hemodynamics were measured using a pre-calibrated pressure transducer in isoflurane positive-pressure ventilated animals. Steady-state pulmonary and systemic arterial pressures were measured using a Millar Solid State Mikro-tip catheter (Millar Instruments, Houston, Tex.) introduced to the pulmonary arterial trunk at the level of the aortic arch via the right carodid artery. Hemodynamic values were automatically calculated by the physiological data acquisition system, ADI Chart (ADI Instruments, Colorado Springs, Colo.) (Plato BioPharma).
as §5, §6, §7
Immunohistochemistry. […]

[2] = day 0-28, score scale 0-5, FIG. 3g

Row | Compound | IC50 (hPAAF) | IC50 (rPASMC) | IC50 (phospho-Rb (Ser807/811)) | IC50 (hPASMC) | lung weight vs vehicle/Su5416/Hx group (rat Su5416/Hx PAH model) | vessel-associated Ki67+ cells in the pulmonary vasculature (IHC) (rat Su5416/Hx PAH model) | vessel-associated pRb+ cells in the pulmonary vasculature (IHC) (rat Su5416/Hx PAH model) | MPAP (rat Su5416/Hx PAH model) | Fulton Index (rat Su5416/Hx PAH model) | muscularized intra-acinar vessel density relative to vehicle/Su5416/Hx group (rat Su5416/Hx PAH model) | DPAP (rat Su5416/Hx PAH model) | heart weight vs vehicle/Su5416/Hx group (rat Su5416/Hx PAH model) | average vessel wall thickness, intra-acinar and pre-acinar vessels (rat Su5416/Hx PAH model) | also measured
1 | CCN1CCN(Cc2ccc(Nc3ncc(F)c(-c4cc(F)c5nc(C)n(C(C)C)c5c4)n3)nc2)CC1 [Abemaciclib, 2-pyrimidinamine, N-(5-((4-ethyl-1-piperazinyl)methyl)-2-pyridinyl)-5-fluoro-4-(4-fluoro-2-methyl-1-(1-methylethyl)-1H-benzimidazol-6-yl)] | 1.2 nM | 13 nM | 262 nM | 6.5 nM |  |  |  |  |  |  |  |  |  | 
2 | CN(C)C(=O)c1cc2cnc(Nc3ccc(N4CCNCC4)cn3)nc2n1C1CCCC1 [Ribociclib, 7-cyclopentyl-N, N-dimethyl-2-((5-(piperazin-1-yl)pyridin-2-yl)amino)-7H-pyrrolo[2,3-d]pyrimidine-6-carboxamide] | 0.8 nM | 28.6 nM | 352 nM | 0.5 nM |  |  |  |  |  |  |  |  |  | 
3 | COC(=O)N(C)c1c(N)nc(-c2nn(Cc3ccccc3F)c3ncccc23)nc1N [Riociguat] |  |  |  |  | no change | no significant beneficial effect | no significant beneficial effect | significantly reduced | only a slight reduction | not statistically significantly different | significantly reduced | no change | not | 
4 | CCCc1nn(C)c2c(=O)[nH]c(-c3cc(S(=O)(=O)N4CCN(C)CC4)ccc3OCC)nc12 [Sildenafil] |  |  |  |  | no change | no significant beneficial effect | no significant beneficial effect | significantly reduced | only a slight reduction | not statistically significantly different | significantly reduced | no change | not | SPAP (rat Su5416/Hx PAH model; days 7 to 28, FIG. 4h): significantly reduced; density of fully muscularized intra-acinar vessels (αSMA staining) ([1]; day 0-28, FIG. 3e): effective; average vessel wall thickness relative to vehicle/MCT group ([1]; day 0-28, FIG. 3d): 0.76 x MCT; disease severity scores, mean [1, 2]: 2.5; disease severity scores, range [1, 2]: 1-4; average vessel wall thickness (elastin staining), intra-acinar and pre-acinar pulmonary arteries, relative to vehicle/MCT group ([1]; day 14-28, FIG. 3d): little effect; PAH-related increase in MPAP ([1]; dosed prophylactically day 0-28, sildenafil 50 mg/kg/dose PO BID, FIG. 3b): significantly reduced; PAH-related increase in Fulton Index ([1]; prophylactic day 0-28, FIG. 3c): significantly reduced; PAH-related increase in DPAP ([1]; prophylactic day 0-28, FIG. 3i): significantly reduced; PAH-related increase in heart weight ([1]; prophylactic day 0-28, FIG. 3j): significantly reduced; PAH-related increase in SPAP ([1]; prophylactic day 0-28, FIG. 3h): significantly reduced; DPAP ([1]; therapeutic day 14-28): small and non-significant reduction; Fulton Index ([1]; therapeutic day 14-28): small and non-significant reduction; MPAP ([1]; therapeutic day 14-28): small and non-significant reduction; SPAP ([1]; therapeutic day 14-28): small and non-significant reduction; heart weight ([1]; therapeutic day 14-28): small and non-significant reduction
